According to the supplement of paper PMC11061612:

Key:
Test in all cases: Bliss excess, mean over the matrix (fraction); higher = more synergy
[1] = test system: COLO-824 (Breast Carcinoma)
How it was run: (§1)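 Cell lines grown in DMEM/F12 or RPMI with 10% FBS were plated in 1536-well plates and held 24 hours at 37°C, 5% CO2 before 72 hours of exposure to two-drug dose matrices, with DMSO typically at 0.2%. CellTiter-Glo 2.0 luminescence gave viability, which was converted to inhibition. Vehicle wells were set to 0 and blank wells to 1. Combination Emax is the second-highest inhibition in the matrix, and Bliss excess is the observed combination effect minus the expected EA + EB − EA·EB, where EA and EB are the single-agent effects.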

[2] = test system: MDST8 (Colorectal Carcinoma)
How it was run: as §1

[3] = test system: NCI-H1693 (Lung Adenocarcinoma)
How it was run: as §1

[4] = test system: KARPAS-422 (B-Cell Non-Hodgkin's Lymphoma)
How it was run: as §1

[5] = test system: SISO (Cervical Carcinoma)
How it was run: as §1

[6] = test system: FU97 (Gastric Carcinoma)
How it was run: as §1

[7] = test system: 8-MG-BA (Glioblastoma)
How it was run: as §1

[8] = test system: PANC-10-05 (Pancreatic Carcinoma)
How it was run: as §1

[9] = test system: ONS-76 (Other Solid Carcinomas)
How it was run: as §1

[10] = test system: NCI-H2591 (Mesothelioma)
How it was run: as §1

[11] = test system: Hs-445 (Non-Cancerous)
How it was run: as §1

[12] = test system: NCI-H2066 (Squamous Cell Lung Carcinoma)
How it was run: as §1

[13] = test system: IGR-37 (Melanoma)
How it was run: as §1

[14] = test system: OS-RC-2 (Kidney Carcinoma)
How it was run: as §1

[15] = test system: CAPAN-2 (Pancreatic Carcinoma)
How it was run: as §1

[16] = test system: TT2609-C02 (Thyroid Gland Carcinoma)
How it was run: as §1

[17] = test system: HCC1954 (Breast Carcinoma)
How it was run: as §1

[18] = test system: NCI-H2141 (Small Cell Lung Carcinoma)
How it was run: as §1

[19] = test system: GI-ME-N (Neuroblastoma)
How it was run: as §1

[20] = test system: JSC-1 (B-Cell Non-Hodgkin's Lymphoma)
How it was run: as §1

SMILES | Bliss excess [1] | Bliss excess [2] | Bliss excess [3] | Bliss excess [4] | Bliss excess [5] | Bliss excess [6] | Bliss excess [7] | Bliss excess [8] | Bliss excess [9] | Bliss excess [10] | Bliss excess [11] | Bliss excess [12] | Bliss excess [13] | Bliss excess [14] | Bliss excess [15] | Bliss excess [16] | Bliss excess [17] | Bliss excess [18] | Bliss excess [19] | Bliss excess [20]
CC1(C)CCC(CN2CCN(c3ccc(C(=O)NS(=O)(=O)c4ccc(NCC5CCOCC5)c([N+](=O)[O-])c4)c(Oc4cnc5[nH]ccc5c4)c3)CC2)=C(c2ccc(Cl)cc2)C1 [Venetoclax] + C1CN(CCC1(C(=O)N[C@@H](CCO)C2=CC=C(C=C2)Cl)N)C3=NC=NC4=C3C=CN4 [Capivasertib] (first compound max 1 µM, 7x7, partner max 3 µM) | 0.0048 | -0.0389 | -0.0333 | 0.0459 | -0.0557 | -0.0295 | 0.0442 | -0.0656 | -0.114 | -0.0453 | 0.0344 | -0.0142 | -0.0448 | -0.0442 | -0.0658 | -0.0391 | 0.0021 | -0.0534 | -0.0685 | -0.0613
CC1(C)CCC(CN2CCN(c3ccc(C(=O)NS(=O)(=O)c4ccc(NCC5CCOCC5)c([N+](=O)[O-])c4)c(Oc4cnc5[nH]ccc5c4)c3)CC2)=C(c2ccc(Cl)cc2)C1 [Venetoclax] + C=CCn1c(=O)c2cnc(Nc3ccc(N4CCN(C)CC4)cc3)nc2n1-c1cccc(C(C)(C)O)n1 [AZD1775] (first compound max 1 µM, partner max 1 µM) | 0.0202 | -0.0489 | -0.0281 | 0.0389 | -0.0765 | 0.0519 | -0.0307 | -0.0488 | 0.0043 | -0.0497 | 0.127 | -0.0598 | 0.0267 | -0.078 | -0.0013 | -0.0696 | -0.0366 | 0.0167 | -0.0689 | -0.0281
CC1(C)CCC(CN2CCN(c3ccc(C(=O)NS(=O)(=O)c4ccc(NCC5CCOCC5)c([N+](=O)[O-])c4)c(Oc4cnc5[nH]ccc5c4)c3)CC2)=C(c2ccc(Cl)cc2)C1 [Venetoclax] + CCN(CCO)CCCOc1ccc2c(Nc3cc(CC(=O)Nc4cccc(F)c4)[nH]n3)ncnc2c1 [AZD2811] (first compound max 1 µM, 7x7, partner max 1 µM) | 0.0087 | -0.0011 | 0.0169 | 0.242 | -0.0091 | 0.024 | 0.0065 | -0.0454 | -0.0244 | -0.009 | 0.0894 | -0.0442 | -0.011 | -0.0484 | -0.0114 | -0.0276 | 0.0579 | 0.0609 | -0.0202 | 0.0485
CC1(C)CCC(CN2CCN(c3ccc(C(=O)NS(=O)(=O)c4ccc(NCC5CCOCC5)c([N+](=O)[O-])c4)c(Oc4cnc5[nH]ccc5c4)c3)CC2)=C(c2ccc(Cl)cc2)C1 [Venetoclax] + CN(C)CCCOc1ccc(-c2ccc3ncc4c(c3c2)n(C2CCOCC2)c(=O)n4C)cn1 [AZD0156] (first compound max 1 µM, 7x7, partner max 1 µM) | 0.0588 | -0.038 | -0.0123 | 0.0398 | 0.0004 | -0.0293 | -0.0171 | -0.079 | -0.054 | -0.0202 | -0.035 | -0.0439 | -0.0039 | -0.0456 | -0.0191 | -0.0351 | 0.0044 | -0.0183 | -0.041 | 0.0102
CC1(C)CCC(CN2CCN(c3ccc(C(=O)NS(=O)(=O)c4ccc(NCC5CCOCC5)c([N+](=O)[O-])c4)c(Oc4cnc5[nH]ccc5c4)c3)CC2)=C(c2ccc(Cl)cc2)C1 [Venetoclax] + COc1cc(Nc2ncc3c(n2)-c2ccc(Cl)cc2C(c2c(F)cccc2OC)=NC3)ccc1C(=O)O [Alisertib] (first compound max 1 µM, 7x7, partner max 10 µM) | 0.206 | -0.0242 | -0.0862 | 0.137 | 0.0121 | -0.0524 | 0.0038 | -0.0602 | -0.0478 | -0.066 | 0.374 | 0.0077 | -0.0148 | -0.0547 | -0.0463 | -0.0069 | 0.0356 | 0.171 | -0.094 | 0.0504
CC1(C)CCC(CN2CCN(c3ccc(C(=O)NS(=O)(=O)c4ccc(NCC5CCOCC5)c([N+](=O)[O-])c4)c(Oc4cnc5[nH]ccc5c4)c3)CC2)=C(c2ccc(Cl)cc2)C1 [Venetoclax] + C[C@@H]1COCCN1C2=NC(=NC(=C2)C3(CC3)[S@](=N)(=O)C)C4=C5C=CNC5=NC=C4 [AZD6738] (first compound max 1 µM, 7x7, partner max 10 µM) | -0.0203 | -0.0025 | -0.0147 | -0.0055 | -0.0309 | -0.0455 | -0.0603 | -0.113 | -0.0531 | -0.0595 | 0.0577 | -0.0098 | 0.0453 | -0.0804 | -0.0439 | -0.0293 | 0.0328 | 0.0202 | -0.0353 | -0.0148
